Assay results reported in ChEMBL document CHEMBL4673297, “Glutathione peroxidase-like functions of 1,2-diselenane-4,5-diol and its amphiphilic derivatives: Switchable catalytic cycles depending on peroxide substrates” (Bioorg Med Chem, 2021).
Activity calls are given as the source filed them. The rule behind the calls is not given here.

What was measured:
[1] = Glutathione peroxidase-like catalytic anti-lipid peroxidation activity assessed as inhibition of AAPH-induced lipid peroxidation incubated for 3 hrs using soybean lecithin/cholesterol-liposomes by TBARS assay; format: physicochemical
[2] = (§1) Glutathione peroxidase-like catalytic antioxidant activity in pH 7 phosphate buffer assessed as catalytic reduction of H2O2 by measuring initial velocity at 100 uM and 25 degreeC using GSH as mono-thiol co-substrate in presence of NADPH by UV absorbance analysis (reference value: 11 +/- 0.4 microM/min); format: functional
[3] = as §1, with “0.2 mM” for “100 uM”, “reduced DTT” for “GSH”, “di-thiol” for “mono-thiol”, “72+/- 3” for “11 +/- 0.4”; format: functional
[4] = Glutathione peroxidase-like catalytic activity assessed as drug oxidation by measuring (S)-2-Oxo-2lambda(4)-[1,2,7]oxadiselenepan-4-yl-ammonium formation incubated with 8.6 mM H2O2 and 8.6 mM reduced DTT in water at 3.8 mM incubated for 2 mins by ESI(+)-MS spectral analysis; format: functional
[5] = Glutathione peroxidase-like catalytic activity assessed as drug oxidation by measuring (2S)-1,4-diseleninobutan-2-aminium formation incubated with 8.6 mM H2O2 and 8.6 mM reduced DTT in water at 3.8 mM incubated for 2 mins by ESI(+)-MS spectral analysis; format: functional
[6] = Glutathione peroxidase-like catalytic activity assessed as drug oxidation by measuring (S)-[1,2,7]Oxadiselenepan-4-yl-ammonium formation incubated with 8.6 mM H2O2 in water at 3.8 mM incubated for 3 hrs by ESI(+)-MS spectral analysis; format: functional
[7] = Glutathione peroxidase-like catalytic activity assessed as drug oxidation by measuring (S)-2-Oxo-2lambda(4)-[1,2,7]oxadiselenepan-4-yl-ammonium formation incubated with 8.6 mM H2O2 in water at 3.8 mM incubated for 3 hrs by ESI(+)-MS spectral analysis; format: functional
[8] = Glutathione peroxidase-like catalytic activity assessed as drug oxidation by measuring (S)-[1,2,7]Oxadiselenepan-4-yl-ammonium formation incubated with 8.6 mM H2O2 and 8.6 mM reduced DTT in water at 3.8 mM incubated for 2 mins by ESI(+)-MS spectral analysis; format: functional
[9] = Glutathione peroxidase-like catalytic activity assessed as drug oxidation by measuring (S)-2,7-Dioxo-2lambda(4),7lambda(4)-[1,2,7]oxadiselenepan-4-yl-ammonium formation incubated with 8.6 mM H2O2 in water at 3.8 mM incubated for 3 hrs by ESI(+)-MS spectral analysis; format: functional
[10] = Glutathione peroxidase-like catalytic activity assessed as drug oxidation by measuring (2S)-1,4-diseleninobutan-2-aminium formation incubated with 8.6 mM H2O2 in water at 3.8 mM incubated for 3 hrs by ESI(+)-MS spectral analysis; format: functional
[11] = Glutathione peroxidase-like catalytic activity assessed as drug oxidation by measuring (S)-2-Oxo-2lambda(4)-[1,2]diselenan-4-yl-ammonium formation incubated with 3.8 mM H2O2 in water at 3.8 mM incubated for 30 mins by ESI(+)-MS spectral analysis; format: functional
[12] = Glutathione peroxidase-like catalytic activity assessed as drug oxidation by measuring (S)-2-Oxo-2lambda(4)-[1,2,7]oxadiselenepan-4-yl-ammonium formation incubated with 3.8 mM H2O2 in water at 3.8 mM incubated for 30 mins by ESI(+)-MS spectral analysis; format: functional
[13] = Glutathione peroxidase-like catalytic activity assessed as drug oxidation by measuring (S)-2-Oxo-2lambda(4)-[1,2]diselenan-4-yl-ammonium formation incubated with 8.6 mM H2O2 in water at 3.8 mM incubated for 3 hrs by ESI(+)-MS spectral analysis; format: functional
[14] = Glutathione peroxidase-like catalytic activity assessed as drug oxidation by measuring (S)-2,7-Dioxo-2lambda(4),7lambda(4)-[1,2,7]oxadiselenepan-4-yl-ammonium formation incubated with 8.6 mM H2O2 and 8.6 mM reduced DTT in water at 3.8 mM incubated for 2 mins by ESI(+)-MS spectral analysis; format: functional
[15] = Glutathione peroxidase-like catalytic activity assessed as drug oxidation by measuring (S)-2-Oxo-2lambda(4)-[1,2]diselenan-4-yl-ammonium formation incubated with 8.6 mM H2O2 and 8.6 mM reduced DTT in water at 3.8 mM incubated for 2 mins by ESI(+)-MS spectral analysis; format: functional
[16] = Glutathione peroxidase-like catalytic activity assessed as drug oxidation by measuring (S)-[1,2,7]Oxadiselenepan-4-yl-ammonium formation incubated with 3.8 mM H2O2 in water at 3.8 mM incubated for 30 mins by ESI(+)-MS spectral analysis; format: functional
[17] = Glutathione peroxidase-like catalytic activity assessed as drug oxidation by measuring (S)-2,7-Dioxo-2lambda(4),7lambda(4)-[1,2,7]oxadiselenepan-4-yl-ammonium formation incubated with 3.8 mM H2O2 in water at 3.8 mM incubated for 30 mins by ESI(+)-MS spectral analysis; format: functional
HeLa [18] = assay: Protection against AAPH-induced oxidative stress in human HeLa cells assessed as increase in cell viability at 5 to 20 uM preincubated for 15 hrs followed by incubation with AAPH for 3 hrs by MTT assay relative to control; format: functional; details: dose 5-20 µM; time 18 hrs
HeLa [19] = assay: (§2) Cytotoxicity against human HeLa cells assessed as cell viability at 20 uM measured after 15 hrs by MTT assay relative to control; format: cell-based; details: hela, 15 h, 20 µM
HeLa [20] = assay: Cytotoxicity against human HeLa cells assessed as reduction in cell viability at 100 uM measured after 15 hrs hrs by MTT assay; format: cell-based
[21] = Solubility of the compound in phosphate buffer solution at pH 7.5 in presence of reduced DTT; format: physicochemical
HeLa [22] = assay: Protection against H2O2-induced oxidative stress in human HeLa cells assessed as cell viability at 20 uM preincubated with compound for 15 hrs followed by drug wash-out and later incubated with H2O2 for 4 hrs by MTT assay; format: functional, cell-based
[23] = Glutathione peroxidase-like catalytic antioxidant activity in pH 7 phosphate buffer assessed as catalytic reduction of H2O2 by measuring lipoic acid formation using DHLA as co-substrate at 0.2 mM in presence of NADPH by UV absorbance analysis; format: functional
[24] = Glutathione peroxidase-like catalytic antioxidant activity assessed as CST-HCl thiol co-substrate oxidation by measuring disulfide formation at 11.5 umol in presence of CHP lipophilic peroxide in 10 mM aqueous HCl/CH2Cl2 solution incubated for 24 hrs by 1H-NMR spectroscopy; format: functional; details: dose 11.5 µmol
[25] = Glutathione peroxidase-like catalytic antioxidant activity assessed as CST-HCl thiol co-substrate oxidation by measuring disulfide formation at 11.5 umol in presence of CHP lipophilic peroxide in water/CH2Cl2 solution incubated for 24 hrs by 1H-NMR spectroscopy; format: functional; details: dose 11.5 µmol
[26] = Antioxidant activity assessed as radical scavenging activity by measuring DPBQ generation using DPPD and AMVN as radical initiator at 0.5 mM preincubated for 5 mins with DPPD followed by AMVN addition and measured for 30 mins by UV/Vis-spectrophotometry analysis; format: functional; details: time 35.0 min
[27] = as §2; format: cell-based; details: HeLa cells, read-out: Activity
[28] = Glutathione peroxidase-like catalytic anti-lipid peroxidation activity assessed as inhibition of AAPH-induced lipid peroxidation incubated for 3 hrs in presence of (+/-)-trans-5-Hydroxy-1,2-diselenan-4-yl dodecanoate using soybean lecithin/cholesterol-liposomes by TBARS assay; format: physicochemical

Compound | IC50 [1] [µM] | fold change (FC) (HeLa [18]) | Activity (HeLa [19]) | V0 [2] [µM/min] | Activity (HeLa [20]) | solubility [21] | Activity (HeLa [22]) | V0 [3] [µM/min] | also measured
c1ccc([Se][Se]c2ccccc2)cc1 | 70.1 |  |  |  |  |  |  |  | 
O[C@@H]1C[Se]C[C@H]1O |  |  |  |  |  |  |  |  | IC50 [2]: Not Active; IC50 [3]: Not Active
N[C@H]1CC[Se][Se]C1 |  |  |  |  |  |  |  |  | Drug metabolism [4]: Metabolite not detected; Drug metabolism [5]: Metabolite not detected; Drug metabolism [6]: Metabolite detected; Drug metabolism [7]: Metabolite detected; Drug metabolism [8]: Metabolite detected; Drug metabolism [9]: Metabolite detected; Drug metabolism [10]: Metabolite detected; Drug metabolism [11]: Metabolite detected; Drug metabolism [12]: Metabolite detected; Drug metabolism [13]: Metabolite detected; Drug metabolism [14]: Metabolite not detected; Drug metabolism [15]: Metabolite detected; Drug metabolism [16]: Metabolite detected; Drug metabolism [17]: Metabolite detected
O=C(O[C@@H]1C[Se][Se]C[C@H]1O)c1ccc2ccccc2c1 (racemic) | 15.5 | 1.5 | Non-Toxic | 11.3 | Toxic | Insoluble | inactive |  | 
O=C(O[C@@H]1C[Se][Se]C[C@H]1O)c1ccccc1 (racemic) | 27.3 |  | Toxic | 12.7 | Toxic | Soluble | inactive | 116 | 
CCC(=O)O[C@@H]1C[Se][Se]C[C@H]1O (racemic) | 121 |  | Toxic | 23 | Toxic | Soluble | inactive | 330 | Activity [23]: Active
CCCCCCCC(=O)O[C@@H]1C[Se][Se]C[C@H]1O (racemic) | 30 | 1.5 | Non-Toxic | 11.9 | Non-Toxic | Soluble | inactive | 109 | 
CCCCCCCCCCCC(=O)O[C@@H]1C[Se][Se]C[C@H]1O (racemic) | 10.7 | 1.5 | Non-Toxic | 9.3 | Non-Toxic | Soluble | inactive | 122 | 
CCCCCC(=O)O[C@@H]1C[Se][Se]C[C@H]1O (racemic) | 42.2 |  | Toxic | 14.9 | Toxic | Soluble | inactive | 149 | Activity [23]: Active
CCCCCCCCCC(=O)O[C@@H]1C[Se][Se]C[C@H]1O (racemic) | 13.2 | 1.5 | Non-Toxic | 10.9 | Non-Toxic | Soluble | inactive | 172 | 
CCCCCCCCCCCCCC(=O)O[C@@H]1C[Se][Se]C[C@H]1O (racemic) | 16.7 | 1.5 | Non-Toxic | 9.1 | Non-Toxic | Soluble | inactive | 63 | Activity [24]: Active; Activity [25]: Active; Activity [26]: inactive
O=c1c2ccccc2[se]n1-c1ccccc1 [EBSELEN] | 80.4 |  |  | 32.6 |  |  |  | 202 | viability at 15 h, 20 µM [27]: 80%
CC1=NN(c2ccccc2)C(=O)C1 [EDARAVONE] | 29.3 |  |  |  |  |  |  |  | IC50 [28]: 18.7 µM
